Patent publication US20220233553A1, “CELLULAR SENESCENCE ACTIVATING COMPOUNDS” (UNIVERSIDAD NACIONAL AUTONOMA DE MEXICO, priority 2019, published 2022)

Assays:
HCT-15 (colon) = experiment: Effect on cell lines (CI50, % growth inhibition); assay type: cell-based; settings: Homo sapiens; for IC50: HCT-15, read-out: CI50 ± EE, μM HCT-15 (colon)
K562 (leukemia) = experiment: Effect on cell lines (CI50, % growth inhibition); assay type: cell-based; settings: Homo sapiens; for IC50: K562, read-out: CI50 ± EE, μM K562 (leukemia)
PC-3 (prostate) = experiment: Effect on cell lines (CI50, % growth inhibition); assay type: cell-based; settings: for IC50: Homo sapiens, PC-3, read-out: CI50 ± EE, μM PC-3 (prostate)
U251 (CNS) = experiment: Effect on cell lines (CI50, % growth inhibition); assay type: cell-based; settings: Homo sapiens; for IC50: U-251, read-out: CI50 ± EE, μM U251 (CNS)
HCT-15 = experiment: Cytotoxicity against colon cancer cell lines, 24, 48 and 72 hours; assay type: cell-based
HCT-116 = experiment: as above; assay type: cell-based
SW-620 = experiment: as above; assay type: cell-based
HCT-116 cancer cells = experiment: Xenotransplantation study, antitumor activity; assay type: in vivo, mice; settings: for reduction in tumor size: vs untreated mouse
Text: The arrows indicate the days of compound administration, in a regimen of 1 administration per week for 3 weeks, each point represents the average and SD of 6 mice.
The arrows indicate the days of administration, with 3 administrations per week for 3 weeks, each point representing the mean±SD of 6 mice.

[1] = Blood parameters of the treated mice
HCT-116 line = experiment: Apoptosis induction, double labeling with annexin V and IP; assay type: cell-based; settings: 30 μM, 72 hours of treatment
Text: FIG. 2. Results of the apoptosis induction using a double labeling with annexin V and IP, due to the effect of compound In.

[2] = Toxicity in nu/nu mice (LD50, weight, physical or behavioral changes); assay type: in vivo
Text: FIG. 7. […] Each point in the graphs represents the mean±SD of the weight of 3 mice per experimental group.

β-galactosidase enzyme = experiment: β-galactosidase activity (cellular senescence) in colon cancer cell lines; assay type: cell-based; settings: 72 hours, 30 μM, colon cancer cell lines HCT-116 and HCT-15
Method: FIG. 12. A) β-galactosidase activity in HCT-116 cells, B) β-galactosidase activity in HCT-15 cells, C) Cell control of the HCT-116 cell line, D) HCT-116 cells treated with In […] for 72 hours.
Now, as already mentioned above, the mechanism by which In exerts an antitumor effect without generating cytotoxicity on healthy cells is through the induction of cellular senescence.

lung (SKUL) = experiment: % growth inhibition in cell lines; assay type: cell-based
breast (MCF-7) = experiment: % growth inhibition in cell lines; assay type: cell-based; settings: Homo sapiens, MCF7
[3] = tested on: proliferating cell nuclear antigen (PCNA); experiment: PCNA immunolabelling of xenotransplanted tumor tissue; settings: groups treated at different doses; control group 54.81%±15.63
[4] = tested on: HCT-116 cell xenotransplantation; experiment: Cell morphology in tumor tissues (hematoxylin-eosin, DAPI); settings: tumor tissues of treated mice vs control group
[5] = 2 mg/Kg, administration 3 (times a week)

CC(=O)O[C@H]1C[C@@]2(C)C3CCC4C(C)(C)/C(=N/O)CC[C@@]45C[C@@]35CC[C@]2(C)C1[C@]1(C)CC[C@H](C(C)(C)OC(C)=O)O1 (some centres unmarked) [Ig]
IC50 (HCT-15 (colon)): 28.9 ± 3.17 µM | IC50 (K562 (leukemia)): 15.2 ± 2.35 µM | IC50 (PC-3 (prostate)): 12.6 ± 2.42 µM | IC50 (U251 (CNS)): 21.4 ± 1.67 µM

N.N.[Cl][Pt][Cl] [Cisplatin]
IC50 (HCT-15; HCT-15, incubation 24 h): 12.5 ± 0.5 µM | IC50 (HCT-15; HCT-15, incubation 48 h): 10.7 ± 0.6 µM | IC50 (HCT-15; HCT-15, incubation 72 h): 4.68 ± 0.3 µM | IC50 (HCT-116; HCT-116, incubation 24 h): 10.8 ± 0.7 µM | IC50 (HCT-116; HCT-116, incubation 48 h): 8.37 ± 0.5 µM | IC50 (HCT-116; HCT-116, incubation 72 h): 3.09 ± 0.3 µM | IC50 (SW-620; SW-620, incubation 24 h): 18 ± 0.5 µM | IC50 (SW-620; SW-620, incubation 48 h): 13.9 ± 0.4 µM | IC50 (SW-620; SW-620, incubation 72 h): 9.09 ± 0.3 µM | tumor reduction compared with In 250 mg/kg (HCT-116 cancer cells; 2 mg/kg three times a week for 21 days): equivalent | Alanine aminotransferase [1, 5]: 75.21 UL | Aspartate aminotransferase [1, 5]: 197.32 UL | Creatinine [1, 5]: 43.3 μM/l | Erythrocytes [1, 5]: 7.14e+12 L⁻¹ | Glucose [1, 5]: 7.80 mmol/L | Hemoglobin [1, 5]: 113 g/L | Leukocytes [1, 5]: 1.6e+09 L | Lymphocytes [1, 5]: 0.52 × × 10^9/l | Urea [1, 5]: 9.06 mmol/L | Alanine aminotransferase ([1]; 4 mg/Kg, once a week): 62.89 UL | Aspartate aminotransferase ([1]; 4 mg/Kg, once a week): 151.25 UL | Creatinine ([1]; 4 mg/Kg, once a week): 29.06 μM/l | Erythrocytes ([1]; 4 mg/Kg, once a week): 7.36e+12 L⁻¹ | Glucose ([1]; 4 mg/Kg, once a week): 8.56 mmol/L | Hemoglobin ([1]; 4 mg/Kg, once a week): 115 g/L | Leukocytes ([1]; 4 mg/Kg, once a week): 2.1e+09 L | Lymphocytes ([1]; 4 mg/Kg, once a week): 5.2e+08 L⁻¹ | Urea ([1]; 4 mg/Kg, once a week): 7.57 mmol/L | Leukocytes ([1]; 4 mg/kg once a week and mg/kg three times a week for 3 weeks): decreased leukocytes

CC1(C)C(=O)CC[C@]23C[C@]24CC[C@]2(C)C([C@]5(C)CC[C@H](C(C)(C)O)O5)[C@@H](O)C[C@@]2(C)C4CCC13 (some centres unmarked) [In, Argentantine A]
IC50 (HCT-15; Homo sapiens, HCT-15, incubation 24 h): 95.43 ± 0.6 µM | IC50 (HCT-15; Homo sapiens, HCT-15, incubation 48 h): 59.7 ± 1.3 µM | IC50 (HCT-15; Homo sapiens, HCT-15, incubation 72 h): 44.8 ± 0.9 µM | IC50 (HCT-116; Homo sapiens, HCT-116, incubation 24 h): 87.83 ± 0.7 µM | IC50 (HCT-116; Homo sapiens, HCT-116, incubation 48 h): 53.33 ± 0.2 µM | IC50 (HCT-116; Homo sapiens, HCT-116, incubation 72 h): 43.17 ± 0.4 µM | IC50 (SW-620; Homo sapiens, SW-620, incubation 24 h): 115.6 ± 0.4 µM | IC50 (SW-620; Homo sapiens, SW-620, incubation 48 h): 72.46 ± 0.2 µM | IC50 (SW-620; Homo sapiens, SW-620, incubation 72 h): 61.3 ± 1.2 µM | apoptosis induction (HCT-116 line): only induced apoptosis in the HCT-116 line | reduction in tumor size (HCT-116 cancer cells; 250 mg/kg once a week for 21 days): 49.1% | reduction of the tumor (HCT-116 cancer cells; 250 mg/kg three times a week for 21 days, vs untreated mice): 78.1% | reduction in tumor size (HCT-116 cancer cells; 500 mg/kg once a week for 21 days): 48.8% | physical or behavioral changes ([2]; 500 mg/kg once a week and 250 mg/kg three times a week for three weeks): no physical or behavioral changes | weight loss ([2]; 250 and 500 mg/kg): does not cause weight loss | toxicity ([2]; 500, 250 or 125 mg/kg once a week for 3 weeks, nu/nu mice): does not show toxicity | LD50 at 3 weeks ([2]; mouse, in vivo, intraperitoneal, nu/nu mice, read-out: mean lethal dose (LD50)): > 500 mg/kg | β-galactosidase enzyme activity (β-galactosidase enzyme): observed predominantly in cells of the HCT-116 line | IC50 (HCT-15 (colon)): 31.7 ± 1.1 µM | inhibition at 50 µM (HCT-15 (colon); 50 μM, HCT-15): 31.7% | IC50 (K562 (leukemia)): 38.6 ± 4.47 µM | inhibition at 50 µM (K562 (leukemia); 50 μM, K562): 38.6% | inhibition at 50 µM (PC-3 (prostate); 50 μM, PC-3): 20.2% | IC50 (PC-3 (prostate)): 20.2 ± 3.44 µM | IC50 (U251 (CNS)): 27.3 ± 1 µM | inhibition at 50 µM (U251 (CNS); U-251, 50 μM, U251): 27.3% | inhibition at 50 µM (lung (SKUL)): 0% | inhibition at 50 µM (breast (MCF-7)): 26.6% | quantification of PCNA (percentage of PCNA positive cells) [3]: 10-20% | fragmented nuclei (DAPI labeling) as signal of cell death [4]: no fragmented nuclei

CC1(C)c2oncc2C[C@]23C[C@]24CC[C@]2(C)C([C@]5(C)CC[C@H](C(C)(C)O)O5)[C@@H](O)C[C@@]2(C)C4CCC13 (some centres unmarked) [Ii]
IC50 (HCT-15 (colon)): 10.2 ± 0.77 µM | IC50 (K562 (leukemia)): 11 ± 1.05 µM | IC50 (PC-3 (prostate)): 13 ± 3.56 µM | IC50 (U251 (CNS)): 11.3 ± 1.55 µM

CC(=O)O[C@H]1C[C@@]2(C)C3CCC4C(C)(C)C(=O)C=C[C@@]45C[C@@]35CC[C@]2(C)C1[C@]1(C)CC[C@H](C(C)(C)OC(C)=O)O1 (some centres unmarked) [Ic]
IC50 (HCT-15 (colon)): > 100 µM | IC50 (K562 (leukemia)): > 100 µM | IC50 (PC-3 (prostate)): 13.9 ± 0.324 µM | IC50 (U251 (CNS)): 58.4 ± 4 µM
